The target of the experiment is T1, purified human HDAC6 (Homo sapiens, UniProt Q9UBN7).
T1 construct: purchased BPS Bioscience 5006
T1 sequence (Q9UBN7 1-1215): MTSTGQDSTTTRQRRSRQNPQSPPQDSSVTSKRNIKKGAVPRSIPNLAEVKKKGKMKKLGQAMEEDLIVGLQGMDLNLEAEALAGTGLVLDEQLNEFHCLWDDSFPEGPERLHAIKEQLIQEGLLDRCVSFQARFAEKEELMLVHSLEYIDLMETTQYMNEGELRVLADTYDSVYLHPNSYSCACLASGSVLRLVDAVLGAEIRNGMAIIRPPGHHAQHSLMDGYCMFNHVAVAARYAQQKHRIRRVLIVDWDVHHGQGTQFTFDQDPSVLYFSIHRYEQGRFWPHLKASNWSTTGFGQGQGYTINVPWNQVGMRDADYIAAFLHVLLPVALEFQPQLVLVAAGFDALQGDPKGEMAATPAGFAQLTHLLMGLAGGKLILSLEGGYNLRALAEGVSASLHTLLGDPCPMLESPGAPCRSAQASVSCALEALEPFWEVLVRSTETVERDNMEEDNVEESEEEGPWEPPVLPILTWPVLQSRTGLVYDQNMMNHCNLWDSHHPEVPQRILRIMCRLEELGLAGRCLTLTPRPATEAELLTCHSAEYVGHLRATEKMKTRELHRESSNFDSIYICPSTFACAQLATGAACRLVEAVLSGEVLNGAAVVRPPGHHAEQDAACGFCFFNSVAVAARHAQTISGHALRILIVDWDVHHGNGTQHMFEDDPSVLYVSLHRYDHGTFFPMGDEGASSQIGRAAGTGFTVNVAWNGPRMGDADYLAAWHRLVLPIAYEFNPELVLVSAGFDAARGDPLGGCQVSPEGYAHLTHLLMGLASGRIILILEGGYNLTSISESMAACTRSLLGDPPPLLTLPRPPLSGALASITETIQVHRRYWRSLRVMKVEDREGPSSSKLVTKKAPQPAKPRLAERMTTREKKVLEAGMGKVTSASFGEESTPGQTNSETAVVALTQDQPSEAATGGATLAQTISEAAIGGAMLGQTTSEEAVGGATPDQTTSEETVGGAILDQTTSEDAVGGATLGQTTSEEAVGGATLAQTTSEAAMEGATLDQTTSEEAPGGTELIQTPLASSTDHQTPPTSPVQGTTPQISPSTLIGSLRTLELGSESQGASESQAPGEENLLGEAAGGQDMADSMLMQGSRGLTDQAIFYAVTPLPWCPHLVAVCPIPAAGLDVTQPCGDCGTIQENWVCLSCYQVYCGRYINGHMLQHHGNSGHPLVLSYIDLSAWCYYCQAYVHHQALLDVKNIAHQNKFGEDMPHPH
The experiment in a line: HDAC6 Enzyme Assay. As to conditions: HDAC6 inhibition at a compound concentration of 0.412 μM; read-out: Percent Inhibition at 0.412 μM. The experiment is classed as biochemical. As for the experimental part:
To measure the inhibition of HDAC6 activity, purified human HDAC6 (BPS Bioscience; Cat. No. 5006) is incubated with substrate Ac-Arg-Gly-Lys(Ac)-AMC peptide (Bachem Biosciences; Cat. No. I-1925) for 1 hour at 30° C. in the presence of test compounds or vehicle DMSO control. The reaction is stopped with the HDAC inhibitor trichostatin A (Sigma; Cat. No. T8552) and the amount of Arg-Gly-Lys-AMC generated is quantitated by digestion with trypsin (Sigma; Cat. No. T1426) and subsequent measurement of the amount of AMC released using a fluorescent plate reader (Pherastar; BMG Technologies) set at Ex 340 nm and Em 460 nm. Concentration response curves are generated by calculating the fluorescence increase in test compound-treated samples relative to DMSO-treated controls, and enzyme inhibition (IC50) values are determined from those curves.

Consider `O=C(Cc1c(F)cccc1F)NC1CCCc2cc(C(=O)NO)ccc21` (stereo not drawn) [Compound I-1, 5-{[(2,6-difluorophenyl)acetyl]amino}-N-hydroxy-5,6,7,8-tetrahydronaphthalene-2-carboxamide], for which the inhibition at 0.412 µM is 34%.

With `CCc1cc(C(=O)NC2CCCc3cc(C(=O)NO)ccc32)n(C)n1` (stereo not drawn) [Compound I-2, 3-ethyl-N-{6-[(hydroxyamino)carbonyl]-1,2,3,4-tetrahydronaphthalen-1-yl}-1-methyl-1H-pyrazole-5-carboxamide], the inhibition at 0.412 µM turned out to be 35%.

As for `O=C(NO)c1ccc2c(c1)CCCC2NC(=O)c1ccsc1` (stereo not drawn) [Compound I-3, N-{6-[(hydroxyamino)carbonyl]-1,2,3,4-tetrahydronaphthalen-1-yl}thiophene-3-carboxamide], the inhibition at 0.412 µM turned out to be 36%.

In the case of `CC(C)(C)CC(=O)NC1CCCc2cc(C(=O)NO)ccc21` (stereo not drawn) [Compound I-5, 5-[(3,3-dimethylbutanoyl)amino]-N-hydroxy-5,6,7,8-tetrahydronaphthalene-2-carboxamide], the inhibition at 0.412 µM came to 11%.

Regarding `CC(C)(C)C(=O)NC1CCCc2cc(C(=O)NO)ccc21` (stereo not drawn) [Compound I-6, 5-[(2,2-dimethylpropanoyl)amino]-N-hydroxy-5,6,7,8-tetrahydronaphthalene-2-carboxamide], the inhibition at 0.412 µM was determined as 18%.

As to `Cc1nc(C(F)(F)F)c(C(=O)NC2CCCc3cc(C(=O)NO)ccc32)s1` (stereo not drawn) [Compound I-7, N-{6-[(hydroxyamino)carbonyl]-1,2,3,4-tetrahydronaphthalen-1-yl}-2-methyl-4-(trifluoromethyl)-1,3-thiazole-5-carboxamide], the inhibition at 0.412 µM worked out at 22%.

With `O=C(NO)c1ccc2c(c1)CCCC2NC(=O)c1cccc(C(F)(F)F)c1` (stereo not drawn) [Compound I-8, N-hydroxy-5-{[3-(trifluoromethyl)benzoyl]amino}-5,6,7,8-tetrahydronaphthalene-2-carboxamide], the inhibition at 0.412 µM worked out at 33%.

Take `O=C(NO)c1ccc2c(c1)CCCC2NC(=O)c1cnc2ccccc2n1` (stereo not drawn) [Compound I-9, N-{6-[(hydroxyamino)carbonyl]-1,2,3,4-tetrahydronaphthalen-1-yl}quinoxaline-2-carboxamide]: the inhibition at 0.412 µM amounted to 47%.

`O=C(Cc1ccc(C(F)(F)F)cc1)NC1CCCc2cc(C(=O)NO)ccc21` (stereo not drawn) [Compound I-10, N-hydroxy-5-({[4-(trifluoromethyl)phenyl]acetyl}amino)-5,6,7,8-tetrahydronaphthalene-2-carboxamide]: the inhibition at 0.412 µM is 20%.

`Cc1cc(C)n(CC(=O)NC2CCCc3cc(C(=O)NO)ccc32)n1` (stereo not drawn) [Compound I-11, 5-{[(3,5-dimethyl-1H-pyrazol-1-yl)acetyl]amino}-N-hydroxy-5,6,7,8-tetrahydronaphthalene-2-carboxamide]: the inhibition at 0.412 µM was 21%.

As for `O=C(NO)c1ccc2c(c1)CCCC2NC(=O)c1cc(C(F)(F)F)cc(C(F)(F)F)c1` (stereo not drawn) [Compound I-12, 5-{[3,5-bis(trifluoromethyl)benzoyl]amino}-N-hydroxy-5,6,7,8-tetrahydronaphthalene-2-carboxamide], the inhibition at 0.412 µM worked out at 15%.

In the case of `O=C(NO)c1ccc2c(c1)CCCC2NC(=O)C(C1CCCCC1)C1CCCCC1` (stereo not drawn) [Compound I-13, 5-[(dicyclohexylacetyl)amino]-N-hydroxy-5,6,7,8-tetrahydronaphthalene-2-carboxamide], the inhibition at 0.412 µM stood at 10%.

Take `CC(C)(Oc1ccccc1Cl)C(=O)NC1CCCc2cc(C(=O)NO)ccc21` (stereo not drawn) [Compound I-14, 5-{[2-(2-chlorophenoxy)-2-methylpropanoyl]amino}-N-hydroxy-5,6,7,8-tetrahydronaphthalene-2-carboxamide]: the inhibition at 0.412 µM worked out at 79%.

`CCC(C)(C)C(=O)NC1CCCc2cc(C(=O)NO)ccc21` (stereo not drawn) [Compound I-15, 5-[(2,2-dimethylbutanoyl)amino]-N-hydroxy-5,6,7,8-tetrahydronaphthalene-2-carboxamide]: the inhibition at 0.412 µM came out at 11%.

In the case of `CC(C)(C)c1ccc(C(=O)NC2CCCc3cc(C(=O)NO)ccc32)cc1` (stereo not drawn) [Compound I-16, 5-[(4-tert-butylbenzoyl)amino]-N-hydroxy-5,6,7,8-tetrahydronaphthalene-2-carboxamide], the inhibition at 0.412 µM turned out to be 55%.

As to `O=C(NO)c1ccc2c(c1)CCCC2NC(=O)C1CCCCC1` (stereo not drawn) [Compound I-17, 5-[(cyclohexylcarbonyl)amino]-N-hydroxy-5,6,7,8-tetrahydronaphthalene-2-carboxamide], the inhibition at 0.412 µM was found to be 19%.

As to `Cn1cccc1C(=O)NC1CCCc2cc(C(=O)NO)ccc21` (stereo not drawn) [Compound I-18, N-{6-[(hydroxyamino)carbonyl]-1,2,3,4-tetrahydronaphthalen-1-yl}-1-methyl-1H-pyrrole-2-carboxamide], the inhibition at 0.412 µM is 34%.

As for `Cc1cc(C(=O)NC2CCCc3cc(C(=O)NO)ccc32)n(C(C)(C)C)n1` (stereo not drawn) [Compound I-19, 1-tert-butyl-N-{6-[(hydroxyamino)carbonyl]-1,2,3,4-tetrahydronaphthalen-1-yl}-3-methyl-1H-pyrazole-5-carboxamide], the inhibition at 0.412 µM was determined as 20%.

Turning to `O=C(NO)c1ccc2c(c1)CCCC2NC(=O)c1ccc(C(F)(F)F)cc1` (stereo not drawn) [Compound I-20, N-hydroxy-5-{[4-(trifluoromethyl)benzoyl]amino}-5,6,7,8-tetrahydronaphthalene-2-carboxamide], the inhibition at 0.412 µM amounted to 30%.

Regarding `O=C(NO)c1ccc2c(c1)CCCC2NC(=O)C12CC3CC(CC(C3)C1)C2` (stereo not drawn) [Compound I-21, N-{6-[(hydroxyamino)carbonyl]-1,2,3,4-tetrahydronaphthalen-1-yl}adamantane-1-carboxamide], the inhibition at 0.412 µM was 20%.

Turning to `Cc1oc(S(=O)(=O)N2CCCC2)cc1C(=O)NC1CCCc2cc(C(=O)NO)ccc21` (stereo not drawn) [Compound I-22, N-{6-[(hydroxyamino)carbonyl]-1,2,3,4-tetrahydronaphthalen-1-yl}-2-methyl-5-(pyrrolidin-1-ylsulfonyl)-3-furamide], the inhibition at 0.412 µM came to 28%.

As to `O=C(NO)c1ccc2c(c1)CCCC2NC(=O)c1cc2ccccc2s1` (stereo not drawn) [Compound I-24, N-{6-[(hydroxyamino)carbonyl]-1,2,3,4-tetrahydronaphthalen-1-yl}-1-benzothiophene-2-carboxamide], the inhibition at 0.412 µM came out at 46%.

In the case of `O=C(CC1C[C@@H]2CC[C@H]1C2)NC1CCCc2cc(C(=O)NO)ccc21` (stereo partly drawn) [Compound I-26, 5-{[(1S,4R)-bicyclo[2.2.1]hept-2-ylacetyl]amino}-N-hydroxy-5,6,7,8-tetrahydronaphthalene-2-carboxamide], the inhibition at 0.412 µM was found to be 21%.

Consider `CC(=O)N/C(=C\c1ccccc1)C(=O)NC1CCCc2cc(C(=O)NO)ccc21` (stereo not drawn) [Compound I-27, 5-{[(2Z)-2-(acetylamino)-3-phenylprop-2-enoyl]amino}-N-hydroxy-5,6,7,8-tetrahydronaphthalene-2-carboxamide], for which the inhibition at 0.412 µM amounted to 11%.

As for `O=C(NO)c1ccc2c(c1)CCCC2NC(=O)c1ccc2ncsc2c1` (stereo not drawn) [Compound I-28, N-{6-[(hydroxyamino)carbonyl]-1,2,3,4-tetrahydronaphthalen-1-yl}-1,3-benzothiazole-6-carboxamide], the inhibition at 0.412 µM is -2%.

Regarding `O=C(NO)c1ccc2c(c1)CCCC2NC(=O)c1cn2cc(Cl)ccc2n1` (stereo not drawn) [Compound I-29, 6-chloro-N-{6-[(hydroxyamino)carbonyl]-1,2,3,4-tetrahydronaphthalen-1-yl}imidazo[1,2-a]pyridine-2-carboxamide], the inhibition at 0.412 µM was determined as 70%.

`CC(C)C(C(=O)NC1CCCc2cc(C(=O)NO)ccc21)c1ccccc1` (stereo not drawn) [Compound I-31, N-hydroxy-5-[(3-methyl-2-phenylbutanoyl)amino]-5,6,7,8-tetrahydronaphthalene-2-carboxamide]: the inhibition at 0.412 µM came out at 17%.

What is called inhibition is the change of the read-out against control, counted positive when it falls.

For the origin of these results see patent publication US20140243335A1, “SUBSTITUTED HYDOXAMIC ACIDS AND USES THEREOF” (Millennium Pharmaceuticals, Inc., priority 2010, published 2014).
